Earlier results on 1 substance are cited in US20170096549A1, “MULTIVALENT CATION FORMULATIONS OF PARTIALLY DESULFATED HEPARINS” (Cantex Pharmaceuticals, Inc., priority 2014, published 2017).

Like-named read-outs stand apart in the source and are kept apart here.

Among the targets are IIa (Homo sapiens, UniProt P00734+P01008); anti-thrombin III (Homo sapiens, UniProt P01008); Xa (Homo sapiens, UniProt P00742).

anti-thrombin III, sequence (P01008 33-464, species assumed): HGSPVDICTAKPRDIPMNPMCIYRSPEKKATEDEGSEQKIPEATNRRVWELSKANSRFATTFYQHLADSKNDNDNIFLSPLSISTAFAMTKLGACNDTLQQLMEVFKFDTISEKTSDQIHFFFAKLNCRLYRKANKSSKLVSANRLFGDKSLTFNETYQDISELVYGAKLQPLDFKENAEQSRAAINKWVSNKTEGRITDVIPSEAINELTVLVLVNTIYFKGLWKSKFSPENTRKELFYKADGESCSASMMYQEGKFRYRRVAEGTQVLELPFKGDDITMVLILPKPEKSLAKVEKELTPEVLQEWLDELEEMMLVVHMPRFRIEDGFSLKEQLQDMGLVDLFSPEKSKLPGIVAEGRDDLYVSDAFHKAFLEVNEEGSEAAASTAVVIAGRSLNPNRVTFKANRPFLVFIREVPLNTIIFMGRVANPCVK
Xa, sequence (P01008 33-464 partner): as the sequence (P01008 33-464, species assumed) above
Xa, sequence (P00742 235-488 limits assumed): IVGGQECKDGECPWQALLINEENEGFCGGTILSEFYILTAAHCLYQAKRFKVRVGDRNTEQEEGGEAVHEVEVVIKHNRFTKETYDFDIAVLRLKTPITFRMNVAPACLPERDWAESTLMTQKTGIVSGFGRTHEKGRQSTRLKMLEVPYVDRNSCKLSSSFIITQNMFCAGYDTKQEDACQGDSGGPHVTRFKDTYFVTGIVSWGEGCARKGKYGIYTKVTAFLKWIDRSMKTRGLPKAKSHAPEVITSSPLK

As to Unfractionated heparin, the anti-IIa activity on IIa is recorded as 165-190 U/mg. Also, the “Kd for anti-thrombin III” value on anti-thrombin III is around 22 µg/mL. Also, the dissociation constant (Kd) on anti-thrombin III (listed as heparin) is 1560 nM; at anti-thrombin III (listed as unfractionated heparin) it was around 1560 nM. Further, on Xa, the anti-Xa activity is recorded as 165-190 U/mg. In addition, in the data set with anti-coagulant activity, the “anti-coagulant activity in the USP anti-coagulant assay” value is reported as 165-190 U/mg.
